Patent US10196390B2, “TYK2 inhibitors and uses thereof” (Nimbus Lakshmi, Inc., priority 2014, dated 2019)
Like-named read-outs stand apart in the source and are kept apart here.

Assays:
TYK2 = TYK2 (Homo sapiens (Human), UniProt P29597); assay: Tyk2 activity inhibition assay (radioactive kinase assay / Caliper assay); type: biochemical
Procedure, shortened: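 Radiometric format: TYK2 with peptide substrate (20 μM) and 33P-ATP at 10 μM in HEPES pH 7.5, 1% DMSO, 120 min at room temp, P81 paper capture. Caliper mobility-shift format: TYK2 9.75 nM, peptide 30 at 3 uM, ATP 16 uM (also 1 mM), 25 min at 28° C.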

JAK2 = JAK2 (Homo sapiens (Human), UniProt O60674); assay: JAK2 activity inhibition assay (radioactive kinase assay / Caliper assay); type: biochemical; settings: read-out: JAK2 Ki
JAK2, sequence (O60674 whole entry): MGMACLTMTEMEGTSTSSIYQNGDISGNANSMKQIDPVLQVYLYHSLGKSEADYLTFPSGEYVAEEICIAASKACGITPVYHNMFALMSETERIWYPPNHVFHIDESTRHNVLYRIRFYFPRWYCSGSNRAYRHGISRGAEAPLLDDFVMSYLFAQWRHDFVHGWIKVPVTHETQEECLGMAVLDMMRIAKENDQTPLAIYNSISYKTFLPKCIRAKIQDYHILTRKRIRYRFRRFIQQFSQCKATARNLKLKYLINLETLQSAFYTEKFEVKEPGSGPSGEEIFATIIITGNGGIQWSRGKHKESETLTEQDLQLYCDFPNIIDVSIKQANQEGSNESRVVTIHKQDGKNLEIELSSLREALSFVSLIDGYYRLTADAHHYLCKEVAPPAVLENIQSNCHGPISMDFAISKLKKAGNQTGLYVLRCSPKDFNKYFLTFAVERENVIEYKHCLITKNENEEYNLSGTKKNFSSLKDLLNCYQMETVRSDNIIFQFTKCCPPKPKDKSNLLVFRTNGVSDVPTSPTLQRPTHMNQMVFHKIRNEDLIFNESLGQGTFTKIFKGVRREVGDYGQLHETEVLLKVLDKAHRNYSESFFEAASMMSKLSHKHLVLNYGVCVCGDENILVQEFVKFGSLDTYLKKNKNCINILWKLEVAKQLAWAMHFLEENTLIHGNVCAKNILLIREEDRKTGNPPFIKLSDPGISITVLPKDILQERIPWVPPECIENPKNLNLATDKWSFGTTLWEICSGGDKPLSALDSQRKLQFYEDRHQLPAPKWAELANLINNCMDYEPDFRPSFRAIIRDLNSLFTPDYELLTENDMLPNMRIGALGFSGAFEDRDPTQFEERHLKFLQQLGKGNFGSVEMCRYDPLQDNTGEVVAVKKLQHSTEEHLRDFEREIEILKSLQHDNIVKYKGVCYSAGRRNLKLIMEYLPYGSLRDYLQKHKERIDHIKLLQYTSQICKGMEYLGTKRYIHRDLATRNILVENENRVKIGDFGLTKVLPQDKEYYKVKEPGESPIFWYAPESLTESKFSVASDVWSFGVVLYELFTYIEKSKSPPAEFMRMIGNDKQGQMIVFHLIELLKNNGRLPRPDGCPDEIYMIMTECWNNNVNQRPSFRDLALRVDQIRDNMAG
Procedure, shortened: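 Mobility-shift (Caliper) read-out of phosphorylated peptide substrate. Compound diluted in 25 mM HEPES pH 7.5, 0.01% Brij-35, 0.01% Triton, 0.5 mM EGTA; enzyme added, then peptide plus ATP in 10 mM MgCl2. Incubated 25 min at 28° C, stopped with EDTA buffer.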

Tyk2-pSTAT4 = assay: IL-12 induced pSTAT4 in human PBMC; type: cell-based; settings: read-out: Tyk2-pSTAT4 EC50
Protocol: (§1) Human PBMC are isolated from buffy coat and are stored frozen for assays as needed. Cells for assay are thawed and resuspended in complete media containing serum, then cells are diluted to 1.67 E6 cells/ml so that 120 μl per well is 200,000 cells. 15 μl of compound or DMSO is added to the well at the desired concentrations and incubated at 1 hr at 37 C. 15 μl of stimulus (final concentration of 1.7 ng/mL IL-12) is added for 30 minutes prior to pSTAT4 and total STAT4 analysis using cell lysates prepared and analyzed by MSD reagents as per manufacturer protocol. The final DMSO concentration of compound in the assay is 0.1%.

JAK2-pSTAT5 = assay: GM-CSF induced pSTAT5 in human PBMC; type: cell-based; settings: read-out: JAK2-pSTAT5 EC50
Protocol: as §1, with “Cells for assay are thawed and resuspended in complete media containing serum, then cells are diluted to 1.67 E6 cells/ml so that 120 μl per well is 200,000 cells.” left out
Cells are prepared for analysis as in the above procedure and 15 μl of GM-CSF (final concentration 5 ng/mL) is added for 20 minutes prior to pSTAT5 and total STAT5 analysis using cell lysates prepared and analyzed by MSD reagents as per manufacturer protocol. The final DMSO concentration of compound in the assay is 0.1%.

[1] = IL-12 induced pSTAT4, human PBMC
[2] = GM-CSF induced pSTAT5, human PBMC

TYK2, sequence (P29597 whole entry): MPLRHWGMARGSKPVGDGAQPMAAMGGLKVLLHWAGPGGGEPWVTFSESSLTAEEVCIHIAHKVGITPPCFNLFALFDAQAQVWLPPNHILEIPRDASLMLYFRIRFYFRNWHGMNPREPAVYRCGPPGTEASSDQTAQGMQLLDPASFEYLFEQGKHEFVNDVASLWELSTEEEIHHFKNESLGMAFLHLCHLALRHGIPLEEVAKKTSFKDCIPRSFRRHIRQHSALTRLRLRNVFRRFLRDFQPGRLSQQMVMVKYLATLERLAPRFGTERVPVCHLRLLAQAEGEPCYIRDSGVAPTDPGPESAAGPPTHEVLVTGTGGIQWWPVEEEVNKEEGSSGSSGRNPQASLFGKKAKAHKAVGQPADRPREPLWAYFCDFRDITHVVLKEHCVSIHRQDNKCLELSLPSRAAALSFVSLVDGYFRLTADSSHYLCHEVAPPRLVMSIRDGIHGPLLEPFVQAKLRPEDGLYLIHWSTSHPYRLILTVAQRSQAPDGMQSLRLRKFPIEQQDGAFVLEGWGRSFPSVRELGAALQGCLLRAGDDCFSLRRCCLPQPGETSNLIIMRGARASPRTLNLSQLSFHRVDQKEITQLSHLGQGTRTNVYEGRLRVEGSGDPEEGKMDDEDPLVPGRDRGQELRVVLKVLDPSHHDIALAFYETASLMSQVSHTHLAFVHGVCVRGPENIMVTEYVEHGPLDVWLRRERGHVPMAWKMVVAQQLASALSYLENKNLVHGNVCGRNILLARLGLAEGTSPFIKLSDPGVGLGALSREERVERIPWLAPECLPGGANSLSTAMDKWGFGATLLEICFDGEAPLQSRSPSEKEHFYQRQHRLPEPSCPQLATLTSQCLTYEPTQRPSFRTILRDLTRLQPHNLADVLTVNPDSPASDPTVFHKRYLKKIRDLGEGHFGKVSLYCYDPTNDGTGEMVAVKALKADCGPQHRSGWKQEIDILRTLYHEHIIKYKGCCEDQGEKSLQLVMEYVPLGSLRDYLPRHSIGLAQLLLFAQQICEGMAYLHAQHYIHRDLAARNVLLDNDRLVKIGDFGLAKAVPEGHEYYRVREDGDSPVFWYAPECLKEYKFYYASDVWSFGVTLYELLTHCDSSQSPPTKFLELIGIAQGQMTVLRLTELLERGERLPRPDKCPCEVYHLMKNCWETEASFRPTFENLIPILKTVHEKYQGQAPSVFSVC

| Ki (TYK2) | Ki (JAK2) | EC50 (Tyk2-pSTAT4; [1]) | EC50 (JAK2-pSTAT5; [2]) | Compound | EC50 (Tyk2-pSTAT4; Homo sapiens, PBMC) | EC50 (JAK2-pSTAT5; Homo sapiens, PBMC) |
| --- | --- | --- | --- | --- | --- | --- |
| < 10 nM | 10 to 100 nM | < 2000 nM | > 20000 nM | O=C1NCc2nc(-c3c(F)cccc3F)nc(Nc3ccc([C@H]4CCNC4=O)cc3)c21 [Compound I-86, (R)-2-(2,6-difluorophenyl)-4-((4-(2-oxopyrrolidin-3-yl)phenyl)amino)-6,7-dihydro-5H-pyrrolo[3,4-d]pyrimidin-5-one] |  |  |
| < 10 nM | 10 to 100 nM | < 2000 nM | > 20000 nM | O=C1NCc2nc(-c3c(F)cccc3F)nc(Nc3ccc([C@@H]4CCNC4=O)cc3)c21 [Compound I-87, (S)-2-(2,6-difluorophenyl)-4-((4-(2-oxopyrrolidin-3-yl)phenyl)amino)-6,7-dihydro-5H-pyrrolo[3,4-d]pyrimidin-5-] |  |  |
| < 10 nM | 100 to 1000 nM | < 2000 nM | 2000 to 20000 nM | O=C1NCc2nc(-c3c(F)cccc3Cl)nc(Nc3ccc([C@H]4CCNC4=O)cc3)c21 [Compound I-114, (R)-2-(2-chloro-6-fluorophenyl)-4-((4-(2-oxopyrrolidin-3-yl)phenyl)amino)-6,7-dihydro-5H-pyrrolo[3,4-d]pyrimidin-5-one] |  |  |
| < 10 nM | 10 to 100 nM | < 2000 nM | < 2000 nM | O=C1NCc2nc(-c3c(F)cccc3F)cc(Nc3ccc(NCCN4CCC(F)(F)CC4)cn3)c21 [Compound I-135, 2-(2,6-difluorophenyl)-4-((5-((2-(4,4-difluoropiperidin-1-yl)ethyl)amino)pyridin-2-yl)amino)-6,7-dihydro-5H-pyrrolo[3,4-b]pyridin-5-one] |  |  |
| < 10 nM | 10 to 100 nM | < 2000 nM | < 2000 nM | CC1(O)CCN(c2ccc(Nc3cc(-c4c(F)cccc4F)nc4c3C(=O)NC4)nc2)CC1 [Compound I-137, 2-(2,6-difluorophenyl)-4-((5-(4-hydroxy-4-methylpiperidin-1-yl)pyridin-2-yl)amino)-6,7-dihydro-5H-pyrrolo[3,4-b]pyridin-5-one] |  |  |
| < 10 nM | 10 to 100 nM | < 2000 nM | 2000 to 20000 nM | O=C(NCC(F)(F)F)c1ccc(Nc2cc(-c3c(F)cccc3F)nc3c2C(=O)NC3)nc1 [Compound I-140, 6-((2-(2,6-difluorophenyl)-5-oxo-6,7-dihydro-5H-pyrrolo[3,4-b]pyridin-4-yl)amino)-N-(2,2,2-trifluoroethyl)nicotinamide] |  |  |
| < 10 nM | 10 to 100 nM | < 2000 nM | > 20000 nM | O=C1NCc2nc(-c3c(F)cccc3F)cc(Nc3ccc(N4CCC(N5CCOCC5)CC4)cn3)c21 [Compound I-142, 2-(2,6-difluorophenyl)-4-((5-(4-morpholinopiperidin-1-yl)pyridin-2-yl)amino)-6,7-dihydro-5H-pyrrolo[3,4-b]pyridin-5-one] |  |  |
| < 10 nM | 10 to 100 nM | < 2000 nM | < 2000 nM | O=C1NCc2nc(-c3c(F)cccc3F)cc(Nc3ccc(N4CCC(O)CC4)cn3)c21 [Compound I-147, 2-(2,6-difluorophenyl)-4-((5-(4-hydroxypiperidin-1-yl)pyridin-2-yl)amino)-6,7-dihydro-5H-pyrrolo[3,4-b]pyridin-5-one] |  |  |
| < 10 nM | 10 to 100 nM | < 2000 nM | 2000 to 20000 nM | O=C1NCc2nc(-c3c(F)cccc3F)cc(Nc3ccc(OCCN4CCOCC4)cn3)c21 [Compound I-148, 2-(2,6-difluorophenyl)-4-((5-(2-morpholinoethoxy)pyridin-2-yl)amino)-6,7-dihydro-5H-pyrrolo[3,4-b]pyridin-5-one] |  |  |
| < 10 nM | 10 to 100 nM | < 2000 nM | 2000 to 20000 nM | CN1CCC(C)(c2ccc(Nc3nc(-c4c(F)cccc4F)nc4c3C(=O)NC4)cc2)C1=O (stereo not shown) [Compound I-150, 2-(2,6-difluorophenyl)-4-((4-(1,3-dimethyl-2-oxopyrrolidin-3-yl)phenyl)amino)-6,7-dihydro-5H-pyrrolo[3,4-d]pyrimidin-5-one] |  |  |
| < 10 nM | 100 to 1000 nM | < 2000 nM | > 20000 nM | O=C1NCc2nc(-c3c(F)cccc3F)nc(Nc3ccc([C@H]4CCCNC4=O)cc3)c21 [Compound I-154, (R)-2-(2,6-difluorophenyl)-4-((4-(2-oxopiperidin-3-yl)phenyl)amino)-6,7-dihydro-5H-pyrrolo[3,4-d]pyrimidin-5-one] |  |  |
| < 10 nM | 100 to 1000 nM | < 2000 nM | 2000 to 20000 nM | CC(C)(O)CN1CCC(c2ccc(Nc3nc(-c4c(F)cccc4F)nc4c3C(=O)NC4)cc2)C1=O (stereo not shown) [Compound I-161, 2-(2,6-difluorophenyl)-4-((4-(1-(2-hydroxy-2-methylpropyl)-2-oxopyrrolidin-3-yl)phenyl)amino)-6,7-dihydro-5H-pyrrolo[3,4-d]pyrimidin-5-one] |  |  |

| Compound | Ki (TYK2) | Ki (JAK2) | EC50 (Tyk2-pSTAT4; [1]) | EC50 (JAK2-pSTAT5; [2]) | EC50 (Tyk2-pSTAT4; Homo sapiens, PBMC) | EC50 (JAK2-pSTAT5; Homo sapiens, PBMC) |
| --- | --- | --- | --- | --- | --- | --- |
| CCNC(=O)Cc1ccc(Nc2cc(-c3c(F)cccc3F)nc3c2C(=O)NC3)nc1 [Compound I-88, 2-(6-((2-(2,6-difluorophenyl)-5-oxo-6,7-dihydro-5H-pyrrolo[3,4-b]pyridin-4-yl)amino)pyridin-3-yl)-N-ethylacetamide] | 10 to 100 nM | 100 to 1000 nM |  |  | < 2000 nM | < 2000 nM |
| CC(C)(C(=O)O)c1ccc(Nc2nc(-c3c(F)cccc3F)nc3c2C(=O)NC3)cc1 [Compound I-109, 2-(4-((2-(2,6-difluorophenyl)-5-oxo-6,7-dihydro-5H-pyrrolo[3,4-d]pyrimidin-4-yl)amino)phenyl)-2-methylpropanoic Acid] | < 10 nM | 100 to 1000 nM |  | > 20000 nM | 2000 to 20000 nM |  |
| COc1ccc(Nc2nc(-c3c(F)cccc3F)nc3c2C(=O)NC3)cc1 [Compound I-110, 2-(2,6-difluorophenyl)-4-((4-methoxyphenyl)amino)-6,7-dihydro-5H-pyrrolo[3,4-d]pyrimidin-5-one] | < 10 nM | > 1000 nM |  |  | < 2000 nM | > 20000 nM |
| O=C1NCc2nc(-c3c(F)cccc3Cl)nc(Nc3ccc([C@@H]4CCNC4=O)cc3)c21 [Compound I-115, (S)-2-(2-chloro-6-fluorophenyl)-4-((4-(2-oxopyrrolidin-3-yl)phenyl)amino)-6,7-dihydro-5H-pyrrolo[3,4-d]pyrimidin-5-one] | 10 to 100 nM | 100 to 1000 nM | < 2000 nM | 2000 to 20000 nM |  |  |
| O=C1NCc2nc(-c3c(F)cccc3F)nc(Nc3ccc(C4CCN(C5CCC5)C4=O)cc3)c21 (stereo not shown) [Compound I-117, 4-((4-(1-cyclobutyl-2-oxopyrrolidin-3-yl)phenyl)amino)-2-(2,6-difluorophenyl)-6,7-dihydro-5H-pyrrolo[3,4-d]pyrimidin-5-one] | < 10 nM | 100 to 1000 nM |  |  | < 2000 nM | > 20000 nM |
| O=C1NCc2nc(-c3c(F)cccc3F)nc(Nc3ccc(Cn4ccnn4)cc3)c21 [Compound I-128, 4-((4-((1H-1,2,3-triazol-1-yl)methyl)phenyl)amino)-2-(2,6-difluorophenyl)-6,7-dihydro-5H-pyrrolo[3,4-d]pyrimidin-5-one] | < 10 nM | 100 to 1000 nM |  |  | < 2000 nM | > 20000 nM |
| CC(C)NC(=O)c1ccc(Nc2cc(-c3c(F)cccc3F)nc3c2C(=O)NC3)nc1 [Compound I-138, 6-((2-(2,6-difluorophenyl)-5-oxo-6,7-dihydro-5H-pyrrolo[3,4-b]pyridin-4-yl)amino)-N-isopropylnicotinamide] | < 10 nM | 10 to 100 nM |  |  | < 2000 nM | 2000 to 20000 nM |
